Patent EP0323737A1, “4-Aralkyl-5-substituted-1,2,4-triazole-5-thiols” (SMITHKLINE BECKMAN CORPORATION, priority 1987, dated 1989)

Legend:
[1] = test system: spontaneously hypertensive rats; assay: mean arterial blood pressure in spontaneously hypertensive rats after oral dosing; format: in vivo; settings: 50 mg/kg orally, compared to vehicle-treated controls, approximate
Description: Further, spontaneously hypertensive rats were treated with a suspension or solution of 3-mercapto-4-benzyl-5-n- heptyl-1,2,4-triazole at a dose of 50 mg/kg orally, and mean arterial blood pressure was monitored for 260 minutes using indwelling cannulae in the tail arteries. […] Maximal blood pressure reduction was approximately 10 to 35 mm Hg.

[2] = Teresawa et al., Japan Cir. J. 35, 339 (1971); cited from earlier work

| Structure (SMILES) | time after treatment to significant blood pressure reductions [1] [min] | toxic effect [2] |
| --- | --- | --- |
| CCCCCCCc1nnc(S)n1Cc1ccccc1 [Example 35, 3-Mercapto-4-benzyl-5-n-heptyl-1,2,4-triazole] | ≤ 30 |  |
| CCCCc1ccc(C(=O)O)nc1 [fusaric acid] |  | hepatotoxic |
